Results taken from ChEMBL document CHEMBL1152884, “The identification of orally bioavailable thrombopoietin agonists” (Bioorg Med Chem Lett, 2009).
pEC50: −log10 of the molar value. Converted amounts (≈) assume the structure as drawn.

Assays:
Thrombopoietin receptor = target: T1, Thrombopoietin receptor (Homo sapiens, UniProt P40238); assay: Agonist activity at human thrombopoietin receptor transfected in mouse BAF3 cells assessed as stimulation of beta lactamase activity incubated in dark up to 1 hr; type: functional, cell-based
T1 sequence (P40238 whole entry): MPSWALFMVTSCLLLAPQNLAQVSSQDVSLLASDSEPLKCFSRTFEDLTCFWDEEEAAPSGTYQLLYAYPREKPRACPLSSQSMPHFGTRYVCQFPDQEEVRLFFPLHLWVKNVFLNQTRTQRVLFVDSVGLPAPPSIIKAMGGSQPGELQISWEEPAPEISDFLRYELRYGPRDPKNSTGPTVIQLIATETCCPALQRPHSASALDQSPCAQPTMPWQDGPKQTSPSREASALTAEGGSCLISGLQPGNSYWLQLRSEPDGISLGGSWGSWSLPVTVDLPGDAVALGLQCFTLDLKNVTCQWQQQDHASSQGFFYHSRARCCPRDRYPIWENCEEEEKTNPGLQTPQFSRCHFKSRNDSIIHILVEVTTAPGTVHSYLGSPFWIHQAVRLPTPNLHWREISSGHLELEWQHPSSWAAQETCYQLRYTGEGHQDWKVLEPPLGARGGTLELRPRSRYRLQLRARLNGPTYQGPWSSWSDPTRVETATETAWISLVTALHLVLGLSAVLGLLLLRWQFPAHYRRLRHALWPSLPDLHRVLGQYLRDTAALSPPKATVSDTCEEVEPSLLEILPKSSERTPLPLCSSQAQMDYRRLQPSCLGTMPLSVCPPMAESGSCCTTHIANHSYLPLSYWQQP

[1] = Aqueous solubility of the compound; type: physicochemical
[2] = Lipophilicity, log D of the compound; type: physicochemical; conditions: octanol/water
Canis familiaris = assay: Volume of distribution at steady state in dog at 5 mg/kg, po; type: ADME, organism-based, Canis lupus familiaris; parameters: dose 5 mg/kg, route oral; conditions: in vivo
[3] = Bioavailability in rat at 5 mg/kg, po; type: ADME, organism-based; conditions: in vivo
[4] = Half life in dog at 5 mg/kg, po; type: ADME, organism-based, Canis lupus familiaris; parameters: dose 5 mg/kg, route oral; conditions: in vivo
[5] = Plasma clearance in rat at 5 mg/kg, po; type: ADME, organism-based; parameters: dose 5 mg/kg, route oral
Rattus norvegicus = assay: Volume of distribution at steady state in rat at 5 mg/kg, po; type: ADME, organism-based; parameters: dose 5 mg/kg, route oral; conditions: in vivo
[6] = Half life in rat at 5 mg/kg, po; type: ADME, organism-based; parameters: dose 5 mg/kg, route oral; conditions: in vivo
[7] = Bioavailability in dog at 5 mg/kg, po; type: ADME, organism-based, Canis lupus familiaris; conditions: in vivo
[8] = Plasma clearance in dog at 5 mg/kg, po; type: ADME, organism-based, Canis lupus familiaris; parameters: dose 5 mg/kg, route oral
[9] = Oral bioavailability in rat; type: ADME, organism-based; conditions: in vivo
[10] = Clearance in iv dosed rat; type: ADME, organism-based; conditions: in vivo
[11] = Permeability across human Caco-2 cell membrane; type: ADME, cell-based; conditions: read-out: permeability
[12] = Protein binding in human plasma; type: ADME, cell-free; conditions: read-out: PPB
[13] = Protein binding in dog plasma; type: ADME, cell-free, Canis lupus familiaris; conditions: read-out: PPB
[14] = Protein binding in rat plasma; type: ADME, cell-free; conditions: read-out: PPB
[15] = Protein binding in mouse plasma; type: ADME, cell-free; conditions: read-out: PPB
[16] = aqueous medium, read-out: solubility

| SMILES | pEC50 (Thrombopoietin receptor) | solubility [1, 16] | logD [2] | other results |
| --- | --- | --- | --- | --- |
| O=C(Nc1nc(-c2cccc(C(F)(F)F)c2F)cs1)c1ccc(N2CCC(C(=O)O)CC2)nc1 | 6.37 | < 10 µg/mL | 1.83 | – |
| CC1=NN(c2ccc(C)c(C)c2)C(=O)/C1=N\Nc1cccc(-c2cccc(C(=O)O)c2)c1O [ELTROMBOPAG] | – | – | – | solubility ([1]; buffer): 14000 µg/mL (≈ 31600 µM) |
| NCCO.O=C(Nc1nc(-c2cccc(C(F)(F)F)c2F)cs1)c1cnc(N2CCC(C(=O)O)CC2)c(Cl)c1 | – | 15600 µg/mL | – | – |
| CC1=NN(c2ccc(C)c(C)c2)C(=O)/C1=N\Nc1cccc(-c2cccc(C(=O)O)c2)c1O.NCCO | – | – | – | Vdss (Canis familiaris): 0.228 L/kg; bioavailability [3]: 53.4%; half-life [4]: 2.31 h; CL/F [5]: 6.34 mL/min/kg; Vdss (Rattus norvegicus): 0.579 L/kg; half-life [6]: 1.29 h; bioavailability [7]: 50%; solubility ([1]; buffer): < 1 µg/mL; CL/F [8]: 0.94 mL/min/kg |
| CC1=NN(c2ccc(C)c(C)c2)C(=O)/C1=N\Nc1cccc(-c2cccc(C(=O)[O-])c2)c1O.[Na+] | – | – | – | bioavailability [3]: 66.8%; CL/F [5]: 6.87 mL/min/kg; Vdss (Rattus norvegicus): 0.831 L/kg; half-life [6]: 1.34 h |
| O=C(Nc1nc(-c2cccc(C(F)(F)F)c2F)cs1)c1ccc(N2CCC(C(=O)O)C2)nc1 (centres undefined) | 5.48 | 167 µg/mL (≈ 348 µM) | 1.21 | bioavailability [9]: < 3%; clearance [10]: 2.5 mL/min/kg; Papp [11]: 4.5 ×10⁻⁶ cm/s |
| O=C(Nc1nc(-c2cccc(C(F)(F)F)c2F)cs1)c1cnc(N2CCCCC2)c(Cl)c1 | < 5.00 | < 10 µg/mL | 7.1 | – |
| NCCO.O=C(Nc1nc(-c2cccc(C(F)(F)F)c2F)cs1)c1ccc(N2CCC(C(=O)O)C2)nc1 (centres undefined) | – | > 2000 µg/mL | – | – |
| O=C(Nc1nc(-c2cccc(C(F)(F)F)c2F)cs1)c1cnc(N2CCC(c3nn[nH]n3)CC2)c(Cl)c1 | 6.31 | < 10 µg/mL | 3.24 | – |
| O=C(Nc1nc(-c2cccc(C(F)(F)F)c2F)cs1)c1cnc(N2CCC(C(=O)O)CC2)c(F)c1 | < 6.00 | < 10 µg/mL | – | – |
| O=C(Nc1nc(-c2cccc(OC(F)(F)F)c2F)cs1)c1ccc(Nc2cc(N3CC(O)C3)ncn2)cc1 | – | < 1 µg/mL | 4.61 | – |
| COc1cc(C(=O)Nc2nc(-c3cccc(C(F)(F)F)c3F)cs2)cnc1N1CCC(C(=O)O)CC1 | < 6.00 | < 10 µg/mL | – | – |

Now from value to compound, other results behind:

| pEC50 (Thrombopoietin receptor) | solubility [1, 16] | logD [2] | SMILES | other results |
| --- | --- | --- | --- | --- |
| 7.30 | < 10 µg/mL | – | O=C(Nc1nc(-c2cccc(C(F)(F)F)c2F)cs1)c1cnc(N2CCC(C(=O)O)CC2)c(Br)c1 | – |
| 6.53 | < 10 µg/mL | 2.94 | O=C(Nc1nc(-c2cccc(C(F)(F)F)c2F)cs1)c1cnc(N2CCCC(C(=O)O)C2)c(Cl)c1 (centres undefined) | – |
| 7.24 | < 10 µg/mL | 1.57 | C[C@@H](Nc1ncc(C(=O)Nc2nc(-c3cccc(C(F)(F)F)c3F)cs2)cc1Cl)C(=O)O | – |
| 6.89 | < 10 µg/mL | 1.88 | O=C(Nc1nc(-c2cccc(C(F)(F)F)c2F)cs1)c1cnc(N2CCNC(C(=O)O)C2)c(Cl)c1 (centres undefined) | – |
| 7.47 | < 10 µg/mL | 4.86 | NS(=O)(=O)C1CCN(c2ncc(C(=O)Nc3nc(-c4cccc(C(F)(F)F)c4F)cs3)cc2Cl)CC1 | – |
| 6.86 | < 10 µg/mL | – | N#Cc1cc(C(=O)Nc2nc(-c3cccc(C(F)(F)F)c3F)cs2)cnc1N1CCC(C(=O)O)CC1 | – |
| 7.48 | < 10 µg/mL | 2.94 | O=C(Nc1nc(-c2cccc(C(F)(F)F)c2F)cs1)c1cnc(N2CCC(C(=O)O)CC2)c(Cl)c1 | fraction unbound [12]: < 0.005; fraction unbound [13]: < 0.005; fraction unbound [14]: < 0.005; fraction unbound [15]: < 0.005 |
| 7.25 | < 10 µg/mL | – | O=C(Nc1nc(-c2cccc(C(F)(F)F)c2F)cs1)c1ccc(N2CCC(C(=O)O)CC2)c(Cl)c1 | – |
| 7.55 | < 10 µg/mL | 4.92 | NC(=O)C1CCN(c2ncc(C(=O)Nc3nc(-c4cccc(C(F)(F)F)c4F)cs3)cc2Cl)CC1 | – |
| 6.87 | < 10 µg/mL | – | O=C(Nc1nc(-c2cccc(C(F)(F)F)c2F)cs1)c1cnc(N2CCC(C(=O)O)CC2)c(C(F)(F)F)c1 | – |
| 7.37 | < 10 µg/mL | 2.79 | C[C@H]1CN(c2ncc(C(=O)Nc3nc(-c4cccc(C(F)(F)F)c4F)cs3)cc2Cl)CC1C(=O)O (some centres undefined) | – |
| 6.60 | < 10 µg/mL | – | Cc1cc(C(=O)Nc2nc(-c3cccc(C(F)(F)F)c3F)cs2)cnc1N1CCC(C(=O)O)CC1 | – |
| 8.00 | < 10 µg/mL | – | O=C(Nc1nc(-c2cccc(C(F)(F)F)c2F)cs1)c1cc(Cl)c(N2CCC(C(=O)O)CC2)c(Cl)c1 | – |
